Reference: PubChem BioAssay (NCI)
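Cells were grown in 96-well plates and exposed to each compound for 48 hours at five concentrations; endpoints were interpolated linearly between bracketing concentrations, or set to the highest concentration if not reached. The concentration for 50% growth inhibition is given as GI50. TGI is the concentration that stops growth completely.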

Legend:
Assay in all cases: NCI tumour cell line growth inhibition, 48 h
[1] = tested on: OVCAR-8 ovarian
[2] = tested on: HOP-92 NSCLC
[3] = tested on: SR leukemia
[4] = tested on: IGROV1 ovarian
[5] = tested on: UACC-62 melanoma
[6] = tested on: MCF7 breast
[7] = tested on: A549 NSCLC
[8] = tested on: SF-295 CNS
[9] = tested on: CAKI-1 renal
[10] = tested on: NCI-H23 lung
[11] = tested on: HCT-15 colon
[12] = tested on: HCT-116 colon
[13] = tested on: SNB-75 CNS
[14] = tested on: COLO 205 colon
[15] = tested on: SK-OV-3 ovarian
[16] = tested on: SF-539 CNS
[17] = tested on: MOLT-4 leukemia
[18] = tested on: SK-MEL-5 melanoma
[19] = tested on: MDA-MB-435
[20] = tested on: UO-31 renal
[21] = tested on: MALME-3M melanoma
[22] = tested on: UACC-257 melanoma
[23] = tested on: HL-60(TB) leukemia
[24] = tested on: TK-10 renal
[25] = tested on: HOP-62 NSCLC
[26] = tested on: ACHN renal
[27] = tested on: SF-268 CNS
[28] = tested on: KM12 colon
[29] = tested on: OVCAR-3 ovarian
[30] = tested on: EKVX NSCLC
[31] = tested on: T-47D breast
[32] = tested on: LOX IMVI melanoma
[33] = tested on: SW-620 colon
[34] = tested on: SNB-19 CNS
[35] = tested on: A498 renal
[36] = tested on: CCRF-CEM leukemia
[37] = tested on: NCI-H522 lung
[38] = tested on: HCC-2998 colon
[39] = tested on: RXF 393 renal
[40] = tested on: M14 melanoma
[41] = tested on: PC-3 prostate
[42] = tested on: 786-0 renal
[43] = tested on: BT-549 breast
[44] = tested on: NCI-H460 lung
[45] = tested on: OVCAR-5 ovarian
[46] = tested on: HS 578T breast
[47] = tested on: SN12C renal
[48] = tested on: NCI-H226 lung
[49] = tested on: HT29 colon
[50] = tested on: U251 CNS
[51] = tested on: MDA-MB-231 breast
[52] = tested on: DU-145 prostate
[53] = tested on: OVCAR-4 ovarian
[54] = tested on: SK-MEL-2 melanoma
[55] = tested on: SK-MEL-28 melanoma

Molecule `C=CCN=c1sc2c(n1NC(=O)c1cc3ccc1CCc1ccc(cc1)CC3)C(=O)c1ccccc1C2=O` has a GI50 [1] of 2130 nM, a TGI [1] of 11200 nM and a GI50 [2] of 1560 nM. It also gave a TGI [2] of 4190 nM, a GI50 [3] of 1780 nM and a TGI [3] greater than 100000 nM. It also gave a GI50 [4] of 1130 nM, a TGI [4] of 3210 nM and a GI50 [5] of 1630 nM. It also gave a TGI [5] of 3910 nM, a GI50 [6] of 1230 nM and a TGI [6] of 3360 nM. The GI50 [7] was 2260 nM, the TGI [7] was 5610 nM and the GI50 [8] was 1680 nM. The TGI [8] was 3080 nM, the GI50 [9] was 1180 nM and the TGI [9] was 2860 nM. The GI50 [10] was 1460 nM, the TGI [10] was 3760 nM and the GI50 [11] was 1520 nM. For the same molecule, the TGI [11] was 3500 nM, the GI50 [12] was 577 nM and the TGI [12] was 2580 nM. The GI50 [13] was 843 nM, the TGI [13] was 2770 nM and the GI50 [14] was 1940 nM. The TGI [14] was 4240 nM, the GI50 [15] was 3700 nM and the TGI [15] was 23400 nM. For the same molecule, the GI50 [16] was 1690 nM, the TGI [16] was 3120 nM and the GI50 [17] was 1220 nM. For the same molecule, the TGI [17] was 5760 nM, the GI50 [18] was 1410 nM and the TGI [18] was 2750 nM. For the same molecule, the GI50 [19] was 194 nM, the TGI [19] was 363 nM and the GI50 [20] was 496 nM. It also gave a TGI [20] of 2090 nM, a GI50 [21] of 383 nM and a TGI [21] of 1580 nM. For the same molecule, the GI50 [22] was 1550 nM, the TGI [22] was 3150 nM and the GI50 [23] was 395 nM. The TGI [23] was 3260 nM, the GI50 [24] was 4480 nM and the TGI [24] was 8140 nM. For the same molecule, the GI50 [25] was 1960 nM, the TGI [25] was 4850 nM and the GI50 [26] was 1420 nM. For the same molecule, the TGI [26] was 2910 nM, the GI50 [27] was 1680 nM and the TGI [27] was 4480 nM. The GI50 [28] was 2680 nM, the TGI [28] was 8800 nM and the GI50 [29] was 328 nM. The TGI [29] was 1430 nM, the GI50 [30] was 1390 nM and the TGI [30] was 3460 nM. The GI50 [31] was 2020 nM, the TGI [31] was 7290 nM and the GI50 [32] was 532 nM. For the same molecule, the TGI [32] was 2100 nM, the GI50 [33] was 1630 nM and the TGI [33] was 3450 nM. It also gave a GI50 [34] of 1670 nM, a TGI [34] of 3440 nM and a GI50 [35] of 10500 nM. For the same molecule, the TGI [35] was 47000 nM, the GI50 [36] was 2390 nM and the TGI [36] was greater than 100000 nM. The GI50 [37] was 1490 nM, the TGI [37] was 4190 nM and the GI50 [38] was 1620 nM. It also gave a TGI [38] of 3140 nM, a GI50 [39] of 1350 nM and a TGI [39] of 2710 nM. The GI50 [40] was 1630 nM, the TGI [40] was 3300 nM and the GI50 [41] was 1490 nM. The TGI [41] was 8810 nM, the GI50 [42] was 2300 nM and the TGI [42] was 5700 nM. It also gave a GI50 [43] of 1530 nM, a TGI [43] of 2910 nM and a GI50 [44] of 1940 nM. The TGI [44] was 3970 nM, the GI50 [45] was 2030 nM and the TGI [45] was 4380 nM. The GI50 [46] was 2040 nM, the TGI [46] was 6930 nM and the GI50 [47] was 1220 nM. It also gave a TGI [47] of 2790 nM, a GI50 [48] of 1610 nM and a TGI [48] of 3350 nM. It also gave a GI50 [49] of 3090 nM, a TGI [49] greater than 100000 nM and a GI50 [50] of 1600 nM. The TGI [50] was 4280 nM, the GI50 [51] was 1270 nM and the TGI [51] was 6680 nM. It also gave a GI50 [52] of 1850 nM, a TGI [52] of 3450 nM and a GI50 [53] of 1260 nM. For the same molecule, the TGI [53] was 2560 nM, the GI50 [54] was 1740 nM and the TGI [54] was 4320 nM. It also gave a GI50 [55] of 1870 nM and a TGI [55] of 3350 nM.
